These results are taken from US10618898B2, “Hydroxyl purine compounds and use thereof” (GUANGDONG RAYNOVENT BIOTECH CO., LTD., priority 2015, dated 2020).

pIC50: −log10 of the molar value. Read-outs that look alike come from different tables or passages of the source.

Test [1] has as its target T1, Recombinant full-length human PDE2A protein (Homo sapiens, UniProt O00408).
T1 construct: Recombinant full-length human PDE2A protein; GST (N); host or cells: insect Sf9 cells (baculovirus)
Put plainly: In vitro PDE2 phosphodiesterase inhibitory activity (fluorescence polarization, Transcreener AMP2/GMP2). Format: biochemical. As to the method: Experiment Objective: Determining the concentration of AMP/GMP produced in the reaction system by way of detecting the AlexaFluor 633 fluorescent dye substituted on AMP/GMP antibody by fluorescence polarization assay, and thereby to calculate the IC50 value of PDE2 phosphodiesterase inhibition by the test compound. Experimental Materials: Detecting buffer solution: 10 mM Tris-HCl, pH 7.5, 5 mM MgCl2, 0.01% Brij 35, 1 mM DTT, and 1% DMSO. Enzyme: Recombinant full-length human PDE2A protein with an N-terminal GST-tag expressed in insect Sf9 cells by baculovirus Substrate: 1 μM cGMP Detection System: Transcreener® AMP^2/GMP^2 antibody, AMP2/GMP2 AlexaFluor 633 fluorescent dye Experimental Operation:
The enzyme solution was prepared by using the freshly prepared buffer solution, and then was added into the reaction wells. The DMSO solution of the test compound was added via Echo550, a nanoliter-scale contactless acoustic liquid transferring system, and then pre-incubated at room temperature for 10 minutes. The substrate (1 μLM cGMP) was added to initiate the reaction at room temperature for one hour. The detection system (Transcreener® AMP^2/GMP^2 antibody, AMP2/GMP2 AlexaFluor 633 fluorescent dye) was then added, and the reaction was conducted at room temperature for 90 minutes. Fluorescence polarization was then detected by using Ex/Em 620/688.
The intensity of fluorescence polarization was converted to nM concentration by the AMP/GMP standard curve, and then calculate the relative enzyme activity inhibition relative to the DMSO blank. The IC50 values and curves were calculated by using the Prism software package (GraphPad Software, San Diego Calif., USA)
For orientation: Polarisation of emitted light reports the rotation of a fluorescent probe.

For another test, the system named is TNF-α. Put plainly: In vitro induction of TNF-α in rat blood by LPS (ELISA). The class given is cell-based. The following applies: test compound final concentration 100 μM, 5 hours, read-out: Rate of TNFα inhibition. As to the method:
Experiment Objective: Determining the impact of the compounds on induction of TNF-α in rat blood by LPS in vitro, and evaluating the effect of the compounds on inhibiting induction of TNF-α in rat blood by LPS.
Sprague Dawley rats (male, 210-260 g, 8-10 weeks old, Shanghai SLAC)
Rat TNF-alpha Quantikine ELISA Kit (R&D, # SRTA00)
The test compound solutions were prepared at a concentration of 1 mM. 40 μl of each of the solutions was added into a 48-well cell culture plate (at the final concentration of 100 μM). After the rat was anesthetized with isoflurane, the blood was collected from the heart (heparin for anticoagulation). The blood was added into the 48-well plate containing the test compound, in the amount of 320 μL per well. The 48-well plate was placed into a cell incubator, and then taken out after 30 minutes of incubation. Then, 40 μL of LPS solution (100 μg/ml) was added and mixed. The 48-well plate was placed into the incubator for further incubation. After 5 hours, the 48-well plate was taken out and the blood sample was transferred to a 1.5 mL centrifuge tube, followed by centrifugation in a centrifuge (4,500 rpm, 4° C., 5 minutes). The supernatant was separated and the plasma was obtained. […] In the next day, the TNF-α level of the plasma samples was determined by using the R&D ELISA kit in accordance with the instructions.
(ELISA stands for enzyme-linked immunosorbent assay.)

The mark [2] stands for this setting: human PDE2A, substrate 1 μM cGMP, fluorescence polarization, read-out: PDE2 phosphodiesterase inhibitory activity.

T1 sequence (O00408 whole entry): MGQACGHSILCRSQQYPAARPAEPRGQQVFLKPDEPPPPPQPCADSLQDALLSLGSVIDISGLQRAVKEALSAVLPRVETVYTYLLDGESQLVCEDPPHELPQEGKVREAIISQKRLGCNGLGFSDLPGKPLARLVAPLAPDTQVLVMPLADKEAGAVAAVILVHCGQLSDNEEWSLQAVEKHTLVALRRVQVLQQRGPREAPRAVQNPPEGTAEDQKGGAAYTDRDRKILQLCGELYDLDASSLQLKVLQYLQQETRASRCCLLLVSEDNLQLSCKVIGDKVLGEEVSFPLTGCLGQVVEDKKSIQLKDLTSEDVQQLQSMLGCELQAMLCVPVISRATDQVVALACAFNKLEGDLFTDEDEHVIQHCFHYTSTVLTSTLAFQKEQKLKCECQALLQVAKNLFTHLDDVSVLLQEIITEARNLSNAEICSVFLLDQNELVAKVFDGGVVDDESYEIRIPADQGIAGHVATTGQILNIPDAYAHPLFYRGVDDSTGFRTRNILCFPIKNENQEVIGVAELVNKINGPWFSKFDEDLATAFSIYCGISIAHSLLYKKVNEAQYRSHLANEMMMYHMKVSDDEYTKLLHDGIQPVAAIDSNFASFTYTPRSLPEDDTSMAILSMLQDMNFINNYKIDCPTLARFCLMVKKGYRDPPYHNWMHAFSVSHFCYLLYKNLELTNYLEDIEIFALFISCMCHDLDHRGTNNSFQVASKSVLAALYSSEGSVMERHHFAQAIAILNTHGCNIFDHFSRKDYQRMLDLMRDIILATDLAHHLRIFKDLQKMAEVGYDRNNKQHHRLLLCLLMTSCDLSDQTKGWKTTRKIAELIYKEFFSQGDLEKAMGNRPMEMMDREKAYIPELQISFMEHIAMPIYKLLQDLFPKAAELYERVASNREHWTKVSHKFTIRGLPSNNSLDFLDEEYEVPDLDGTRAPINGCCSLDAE

`CCC1(CCn2c(=O)c3c(ncn3C)n(C)c2=O)CCOC1` (single isomer, unassigned) [Example 12 Isomer 2, 1-(2-(3-Ethyltetrahydro-furan-3-yl)ethyl)-3,7-dimethyl-1H-purin-2,6-(3H,7H)-dione]: in test [1] (setting [2]), the pIC50 was 4.30 to 5.00. The term inhibition denotes the percentage by which the read-out fell short of the control. Take `Cn1cnc2c1c(=O)n(CC1(C)COC1)c(=O)n2C` [Example 3, 3,7-Dimethyl-1-((3-methyloxetan-3-yl)methyl)-1H-purin-2,6(3H, 7H)-dione]: the pIC50 in test [1] is 4.30 to 5.00. Besides, the inhibition at 100 µM in the test on TNF-α lay within 60 to 80%. Regarding `CCC1(Cn2c(=O)c3c(ncn3C)n(C)c2=O)COC1` [Example 4, 1-((3-Ethyloxetan-3-yl)methyl)3,7-dimethyl-1H-purin-2,6(3H,7H)-dione], the pIC50 in test [1] (setting [2]) is 4.30 to 5.00. As for `CCC1OCC1CCn1c(=O)c2c(ncn2C)n(C)c1=O` (centres unmarked) [Example 5, 1-(2-(2-Ethyloxetan-3-yl)ethyl)-3,7-dimethyl-1H-purin-2,6(3H,7H)-dione], the pIC50 in test [1] (setting [2]) was 4.30 to 5.00. Same read-out and setting: the figure for `Cn1cnc2c1c(=O)n(CC1(C)CCOCC1)c(=O)n2C` [Example 11 Isomer 1, 3,7-Dimethyl-1-((4-methyltetrahydro-2H-pyran-4-yl)methyl)-1H-purin-2,6-(3H,7H)-dione] is 4.30 to 5.00; for `CCC1(Cn2c(=O)c3c(ncn3C)n(C)c2=O)CCOCC1` [Example 12 Isomer 1, 1-((4-Ethyltetrahydro-2H-pyran-4-yl)methyl)-3,7-dimethyl-1H-purin-2,6-(3H,7H)-dione] it is 4.30 to 5.00. The same measure, in the same setting: the figure for `C[C@H]1CC(CCn2c(=O)c3c(ncn3C)n(C)c2=O)C[C@H](C)O1` (stereo partly drawn) [Example 14, 1-[2-((2S,6S)-2,6-dimethyltetrahydro-2H-pyran-4-yl)-ethyl]-3,7-dimethyl-1H-2,6(3H,7H)-dione] is 4.30 to 5.00; for `CCC1COCCC1CCn1c(=O)c2c(ncn2C)n(C)c1=O` (centres unmarked) [Example 15, 1-(2-(3-Ethyltetrahydro-2H-pyran-4-yl)ethyl)-3,7-dimethyl-1H-purin-2,6-(3H,7H)-dione] it is 4.30 to 5.00. The same measure, in the same setting: the figure for `CCC1CC(CCn2c(=O)c3c(ncn3C)n(C)c2=O)CCO1` (centres unmarked) [Example 16] is 4.30 to 5.00. Regarding `Cn1cnc2c1c(=O)n(CCN1CCOCC1)c(=O)n2C` [Example 17, 3,7-Dimethyl-1-(2-morpholinoethyl)-purin-2,6-dione], in the test on TNF-α, the inhibition at 100 µM was below 60%. As for `COC1CCC(Cn2c(=O)c3c(ncn3C)n(C)c2=O)CC1` (centres unmarked) [Example 18, 1((-4-Methoxycyclohexyl)methyl)-3,7-dimethyl-1H-purin-2,6-(3H,7H)-dione], the pIC50 in test [1] (setting [2]) was 4.30 to 5.00. Same read-out and setting: the figure for `C[C@@H]1CC(CCn2c(=O)c3c(ncn3CC(F)(F)F)n(C)c2=O)C[C@@H](C)O1` (stereo partly drawn) [Example 20, 1-(2-((2R,6R)-2,6-dimethyltetrahydro-2H-pyran-4-yl)ethyl)-3-methyl-7-(2,2,2-trifluoroethyl)-1H-purin-2,6 (3H,7H)-dione] is 4.30 to 5.00; for `CC(C)n1cnc2c1c(=O)n(CCC1C[C@@H](C)O[C@H](C)C1)c(=O)n2C` (stereo partly drawn) [Example 21, 1-(2-((2R,6R)-2,6-dimethyltetrahydro-2H-pyran-4-yl)ethyl)yl-7-isopropyl-3-methyl-1H-purin-2,6(3H,7H)-dione] it is 4.30 to 5.00; for `C[C@@H]1CC(CCn2c(=O)c3c(ncn3CC3CC3)n(C)c2=O)C[C@@H](C)O1` (some centres unmarked) [Example 23] it is 4.30 to 5.00.

On to `CC(C)Cn1cnc2c1c(=O)n(CCC1C[C@@H](C)O[C@H](C)C1)c(=O)n2C` (stereo partly drawn) [Example 26, 1-(2-((2R,6R)-2,6-dimethyltetrahydro-2H-pyran-4-yl)ethyl)-7-isobutyl-3-methyl-1H-purin-2,6(3H, 7H)-dione], for which, in test [1] (setting [2]), the pIC50 was 4.30 to 5.00. Still for that read-out and setting: the figure for `Cn1c(=O)n(CC2(C)COC2)c(=O)c2c1cnn2CC1CC1` [Example 33, 1-(Cyclopropylmethyl)-4-methyl-6-((3-methyloxetan-3-yl)methyl)-pyrazolo[4,3-d]pyrimidin-5,7-dione] is 4.30 to 5.00.
